Assays:
[1] = target: T1, Mitogen-activated protein kinase 12 (Homo sapiens) (UniProt P53778); experiment: Inhibition of human recombinant p38gamma at 40 nM in presence of ATP by radiometric assay relative to control
T1 sequence (whole entry): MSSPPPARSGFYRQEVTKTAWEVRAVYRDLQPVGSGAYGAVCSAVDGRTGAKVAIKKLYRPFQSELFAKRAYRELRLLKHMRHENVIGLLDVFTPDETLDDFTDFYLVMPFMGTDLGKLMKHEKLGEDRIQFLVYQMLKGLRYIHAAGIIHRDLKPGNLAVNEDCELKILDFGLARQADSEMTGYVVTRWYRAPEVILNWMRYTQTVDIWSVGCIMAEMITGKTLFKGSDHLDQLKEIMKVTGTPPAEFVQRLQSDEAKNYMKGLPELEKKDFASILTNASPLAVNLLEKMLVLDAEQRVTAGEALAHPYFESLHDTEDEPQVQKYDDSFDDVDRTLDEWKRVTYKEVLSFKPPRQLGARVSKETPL

[2] = target: T2, Serine/threonine-protein kinase BRSK1 (Homo sapiens) (UniProt Q8TDC3); experiment: Inhibition of human recombinant BRSK1 at 40 nM related to control ULK1
T2 sequence (whole entry): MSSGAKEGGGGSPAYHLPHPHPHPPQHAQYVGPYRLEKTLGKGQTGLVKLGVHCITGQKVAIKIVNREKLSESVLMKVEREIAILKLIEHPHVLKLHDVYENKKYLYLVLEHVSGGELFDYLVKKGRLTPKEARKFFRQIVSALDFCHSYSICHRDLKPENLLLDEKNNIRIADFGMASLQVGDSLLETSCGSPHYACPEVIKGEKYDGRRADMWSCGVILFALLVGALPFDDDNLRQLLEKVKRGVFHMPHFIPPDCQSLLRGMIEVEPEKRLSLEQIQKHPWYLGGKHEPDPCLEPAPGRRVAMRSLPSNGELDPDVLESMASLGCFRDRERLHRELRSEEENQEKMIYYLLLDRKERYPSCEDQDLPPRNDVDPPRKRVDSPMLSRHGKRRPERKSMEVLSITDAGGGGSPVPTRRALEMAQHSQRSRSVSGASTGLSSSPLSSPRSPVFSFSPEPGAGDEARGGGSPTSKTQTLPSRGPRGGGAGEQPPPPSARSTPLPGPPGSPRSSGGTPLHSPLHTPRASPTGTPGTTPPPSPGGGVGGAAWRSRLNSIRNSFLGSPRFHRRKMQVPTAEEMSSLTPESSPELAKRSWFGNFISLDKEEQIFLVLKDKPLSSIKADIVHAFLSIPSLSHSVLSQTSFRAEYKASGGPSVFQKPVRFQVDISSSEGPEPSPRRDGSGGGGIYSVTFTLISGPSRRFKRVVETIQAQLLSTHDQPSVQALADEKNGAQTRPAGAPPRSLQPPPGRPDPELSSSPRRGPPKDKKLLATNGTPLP

[3] = target: Casein kinase II subunit alpha (Homo sapiens) (UniProt P68400); experiment: Inhibition of human recombinant CK2a1 at 40 nM related to control ULK1
Casein kinase II subunit alpha (Homo sapiens), sequence (P68400 whole entry, looked up): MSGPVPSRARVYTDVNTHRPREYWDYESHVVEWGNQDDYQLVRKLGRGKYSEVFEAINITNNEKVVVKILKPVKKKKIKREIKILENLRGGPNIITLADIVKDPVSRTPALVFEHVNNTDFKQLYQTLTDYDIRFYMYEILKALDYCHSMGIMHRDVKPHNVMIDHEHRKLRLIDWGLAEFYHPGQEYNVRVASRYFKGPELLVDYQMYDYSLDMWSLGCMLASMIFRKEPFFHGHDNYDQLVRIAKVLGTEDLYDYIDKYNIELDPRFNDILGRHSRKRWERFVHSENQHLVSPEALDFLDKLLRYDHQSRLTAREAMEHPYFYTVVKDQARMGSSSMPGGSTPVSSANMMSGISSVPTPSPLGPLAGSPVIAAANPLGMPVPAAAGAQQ

[4] = target: T3, Mitogen-activated protein kinase kinase kinase 7 (Homo sapiens) (UniProt O43318); experiment: Inhibition of human recombinant TAK1 at 40 nM in presence of ATP by radiometric assay relative to control
T3 sequence (whole entry): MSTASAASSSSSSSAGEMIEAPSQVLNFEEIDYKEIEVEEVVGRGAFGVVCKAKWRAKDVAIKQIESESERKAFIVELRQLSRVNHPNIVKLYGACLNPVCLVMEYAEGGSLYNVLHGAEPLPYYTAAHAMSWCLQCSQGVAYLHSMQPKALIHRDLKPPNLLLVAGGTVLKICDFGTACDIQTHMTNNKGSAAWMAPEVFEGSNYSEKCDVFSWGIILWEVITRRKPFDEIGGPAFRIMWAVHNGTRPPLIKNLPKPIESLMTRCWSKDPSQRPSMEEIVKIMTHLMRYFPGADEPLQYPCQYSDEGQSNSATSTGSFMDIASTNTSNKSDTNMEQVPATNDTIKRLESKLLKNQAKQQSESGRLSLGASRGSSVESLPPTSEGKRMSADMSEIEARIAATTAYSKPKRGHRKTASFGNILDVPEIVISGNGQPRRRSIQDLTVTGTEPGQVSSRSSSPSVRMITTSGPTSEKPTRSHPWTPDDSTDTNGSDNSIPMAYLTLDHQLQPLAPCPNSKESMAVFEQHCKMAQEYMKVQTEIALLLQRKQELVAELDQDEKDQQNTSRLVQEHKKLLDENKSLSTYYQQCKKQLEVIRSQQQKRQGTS

[5] = target: T4, Serine/threonine-protein kinase PLK4 (Homo sapiens) (UniProt O00444); experiment: Inhibition of human recombinant PLK4 at 15 nM related to control ULK1
T4 sequence (whole entry): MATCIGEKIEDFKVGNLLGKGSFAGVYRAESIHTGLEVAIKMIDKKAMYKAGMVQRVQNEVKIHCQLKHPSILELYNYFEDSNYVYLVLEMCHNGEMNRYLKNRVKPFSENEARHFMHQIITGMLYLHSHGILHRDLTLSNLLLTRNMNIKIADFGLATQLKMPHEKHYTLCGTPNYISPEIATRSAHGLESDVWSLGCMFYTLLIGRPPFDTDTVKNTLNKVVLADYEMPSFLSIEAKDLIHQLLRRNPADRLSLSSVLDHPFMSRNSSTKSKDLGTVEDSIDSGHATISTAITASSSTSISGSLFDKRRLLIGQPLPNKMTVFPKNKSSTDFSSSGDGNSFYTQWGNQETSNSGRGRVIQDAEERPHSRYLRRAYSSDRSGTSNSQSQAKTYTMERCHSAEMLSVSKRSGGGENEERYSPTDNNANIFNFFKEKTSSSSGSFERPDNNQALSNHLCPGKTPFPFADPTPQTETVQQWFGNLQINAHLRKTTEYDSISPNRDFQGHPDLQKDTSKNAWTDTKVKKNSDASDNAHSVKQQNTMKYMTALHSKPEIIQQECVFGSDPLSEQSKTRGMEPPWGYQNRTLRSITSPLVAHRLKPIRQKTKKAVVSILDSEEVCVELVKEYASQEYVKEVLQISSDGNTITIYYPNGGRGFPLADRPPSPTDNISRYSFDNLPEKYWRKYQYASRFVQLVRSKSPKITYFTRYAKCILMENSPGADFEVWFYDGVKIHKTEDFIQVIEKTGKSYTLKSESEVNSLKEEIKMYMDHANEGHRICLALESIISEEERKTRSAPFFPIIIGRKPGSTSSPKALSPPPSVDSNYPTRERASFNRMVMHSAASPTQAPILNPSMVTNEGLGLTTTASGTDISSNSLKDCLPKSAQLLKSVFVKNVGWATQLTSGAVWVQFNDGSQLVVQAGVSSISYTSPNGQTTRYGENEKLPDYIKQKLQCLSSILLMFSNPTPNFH

[6] = target: Serine/threonine-protein kinase Chk2 (Homo sapiens) (UniProt O96017); experiment: Inhibition of human recombinant CHK2 at 500 nM related to control ULK1
Serine/threonine-protein kinase Chk2 (Homo sapiens), sequence (O96017 whole entry): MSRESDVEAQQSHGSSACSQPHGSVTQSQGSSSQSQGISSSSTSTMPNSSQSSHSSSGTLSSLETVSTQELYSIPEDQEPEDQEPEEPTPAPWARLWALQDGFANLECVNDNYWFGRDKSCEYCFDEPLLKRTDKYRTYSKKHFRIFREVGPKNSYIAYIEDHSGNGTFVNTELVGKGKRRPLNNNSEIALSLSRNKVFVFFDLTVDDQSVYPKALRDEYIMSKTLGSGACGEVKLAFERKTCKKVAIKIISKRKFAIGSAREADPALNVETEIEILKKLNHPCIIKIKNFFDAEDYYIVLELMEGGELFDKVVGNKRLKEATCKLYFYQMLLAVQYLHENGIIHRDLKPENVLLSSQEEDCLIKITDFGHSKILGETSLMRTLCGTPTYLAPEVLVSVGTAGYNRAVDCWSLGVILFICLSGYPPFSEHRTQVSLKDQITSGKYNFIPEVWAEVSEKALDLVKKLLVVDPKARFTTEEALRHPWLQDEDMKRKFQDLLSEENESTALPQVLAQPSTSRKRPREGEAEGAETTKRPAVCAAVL

[7] = target: cAMP-dependent protein kinase catalytic subunit alpha (Homo sapiens) (UniProt P17612); experiment: Inhibition of human recombinant PKACalpha at 500 nM related to control ULK1

Compound: O=C(N[C@@H](C1CC1)C(F)(F)F)c1cc(-c2cnn3cc(-c4ccc(F)cc4)cnc23)cs1
- inhibition [1]: 0%
- fold change (FC) [2]: 0.03
- fold change (FC) [3]: 0.1
- inhibition [4]: 0%

Compound: CC(C)[C@H](NC(=O)c1cc(-c2cnn3cc(-c4ccc(OCCN5CCCCC5)cc4)cnc23)cs1)C(F)(F)F
- fold change (FC) [5]: 0.35

Compound: CNC(=O)c1ccccc1Oc1nc(Nc2cc(OC)c(OC)c(OC)c2)ncc1Br
- fold change (FC) [6]: 0
- fold change (FC) [7]: 0
